In paper PMC5329948, “Caspase vinyl sulfone small molecule inhibitors prevent axonal degeneration in human neurons and reverse cognitive impairment in Caspase-6-overexpressing mice” (Molecular Neurodegeneration, 2017):

What was measured:
[1] = system: HCT116 cells; assay: Cellular toxicity in HCT116 cells (phase contrast, MTT, LDH, sub-G1); format: cell-based, human; conditions: for cell morphology (phase contrast) / lactate dehydrogenase (LDH) release / sub-G1 levels of DNA: HCT116, 100 μM, 24 h; for mitochondrial reductive potential (MTT): HCT116, 20, 50 or 100 μM, 24 or 48 h
Method: Immunofluorescence on human neuron cultures: Primary human neurons were pre-treated 2 h and serum-deprived in the presence of 100 μM NWL-117, 100 μM NWL-154, or 5 μM Z-VEID-fmk (Biomol, Plymouth meeting, PA, USA) for 24 h. Following treatment, human neurons were washed once with warm PBS, fixed for 20 min at room temperature with 4% paraformaldehyde (Sigma, Oakville, ON, CA)/4% sucrose (BioRad, Mississauga, ON, CA) for TubΔCasp6 or 2% formaldehyde (Thermo Fisher Scientific, Waltham, MA, USA)/0.2% glutaraldehyde (Sigma, Oakville, ON, CA) for pBudEGFP or pBudEGFP/APP^WT-transfected neurons, incubated in permeabilization buffer (0.1% Triton X-100, 0.1 sodium citrate) for 1 min on ice, washed with PBS, blocked for 20 min at room temperature with 10% goat serum (Sigma, Oakville, ON, CA), and incubated with primary antibodies diluted in 10% goat serum in PBS overnight at 4 °C in a humid chamber. The glass coverslips were washed with PBS, and incubated with goat anti-rabbit secondary antibody coupled to Alexa 488 (Molecular Probes, Eugene, OR, USA) or Cy3 (GE Healthcare Life Sciences, Baie D’Urfe, QC, CA) and Hoechst 33342 (ImmunoChemistry, Bloomington, MN, USA) at 1 μg/mL for 2 h at room temperature. The coverslips were washed with PBS and rinsed in Milli-Q water before mounting in fluoromount (Dako, Burlington, ON, CA). Images were acquired by fluorescence microscopy and quantified using the ImageJ software (NIH, Bethesda, MD, USA) for TubΔCasp6 and manually counted for transfected EGFP(+)-neurons. Time lapse-imaging by live fluorescence microscopy: Primary human neurons were transfected with gold beads coated with pBudEGFP or pBudEGFP/APP^WT using a Helios Gene gun (BioRad, Mississauga, ON, CA). Briefly, cells were pre-treated with 100 μM NWL inhibitors or 5 μM Z-VEID-fmk for 2 h. The media was removed and the neurons were shot at 100 psi. The media was quickly replaced with the inhibitors present. The plasmid was expressed for 16 h before setting up the fluorescence microscope (Nikon Eclipse Ti) to acquire 20 images per condition every hour for 72 h at 37 °C with 5% CO2. The images were analyzed by counting the total number of neurons (50–100 neurons per condition per independent experiment), and the number of beaded, swollen soma, and healthy neurons. In addition, the time at which cells beaded was noted. Phase contrast microscopy: HCT116 cells, plated at a density of 1×10^5 cells/well and human neurons, plated at a density of 6×10^6 cells/well on poly-L-lysine were treated with PBS, 100 μM NWL-117, 100 μM NWL-154, or 2 μM staurosporine (Biomol, Plymouth meeting, PA, USA) for 24 h. Images were acquired with the Nikon Eclipse Ti microscope and the NIS-Elements (Version 3.10) software.
MTT assay: HCT116 cells or primary human neurons were seeded in 96-well plates at a density of 1x10^4 and 1x10^5 cells per well, respectively. The next day, cells and neurons were treated with vehicle (PBS), or 20, 50, or 100 μM of NWL-117, NWL-154, or 2 μM staurosporine for 24 or 48 h. The media was replaced with […] MTT (3-(4,5-dimethylthiazol-2-yl)-2,5-diphenyltetrazolium bromide) (Sigma-Aldrich, Oakville, ON, CA) and the cells were incubated for 4 h at 37 °C in 5% CO2. The media was removed before dissolving the formazan crystals in 100 μL DMSO while shaking for 30 min. Once dissolved, the absorbance of each sample was measured at 560 nm and 670 nm using the Synergy H4 plate reader from BioTek (Winooski, VT, USA). LDH Assay: HCT116 cells were seeded in a 6-well plate at a density of 1×10^5 cells/well and treated the following day with 100 μM NWL-117 or −154 or equal volumes of vehicle (PBS) for 24 h. As a positive control, some cells were lysed for 2 h in 0.9% Triton X-100 (BioShop Canada Inc, Burlington, Ontario, CA). Media was collected and stored at −20 °C or assayed right away using the Cytotox 96 kit (Promega, Madison, WI, USA) following the manufacturer’s protocol. […]

[2] = molecular target: T1, recombinant Caspase-2 (Homo sapiens, UniProt P42575); assay: Caspase Inhibitor Drug Screening Kit (BioVision), VDVAD-AFC substrate; format: biochemical; conditions: not active site titrated
T1 construct: purchased BioVision
Method: The half-maximal inhibitory concentrations (IC50) for NWL inhibitors (Patent publication # WO/2009/140765, WO/2010/133000, and WO/2012/140500) was determined by incubating 0 to 20 μM NWL-117 and NWL-154 with 20 nM of active site-titrated Casp6 in SB at room temperature for 5 minutes. Then, 10 μM Ac-VEID-AFC was added and fluorescence measured for 20 min at 37 °C as described above. New World Laboratories performed the IC50 determination for NWL inhibitors dissolved in dimethyl sulfoxide (DMSO) against recombinant Casp1-10 using the Caspase Inhibitor Drug Screening Kits (BioVision, San Francisco, CA) following the manufacturer’s instructions and the preferred substrates for the caspases (Caspase-1: WAD-AFC, Caspase-2: VDVAD-AFC, Caspase-3: DEVD-AFC, Caspase-4: LEVD-AFC, Caspase-5: WEHD-AFC, Casp6:VEID-AFC, Caspase-7: DEVD-AFC, Caspase-8: IETD-AFC, Caspase-9: LEHD-AFC, Caspase-10: AEVD-AFC). In transfected HCT116 cells, 0 to 100 μM NWL inhibitors were added in the culture media and left on the cells for 2 h. Cells were washed once with 1 mL ice-cold PBS, incubated on ice for 5 min with 200 μL cell lysis buffer (CLB) (50 mM HEPES, 0.1% CHAPS, 0.1 mM EDTA), and gently scraped off. Protein concentrations were determined by Bradford assay (BioRad, Mississauga, ON, CA) by measuring the absorbance at 595 nm using the BioTek Synergy H4 plate reader. […]

T1 sequence (P42575 whole entry): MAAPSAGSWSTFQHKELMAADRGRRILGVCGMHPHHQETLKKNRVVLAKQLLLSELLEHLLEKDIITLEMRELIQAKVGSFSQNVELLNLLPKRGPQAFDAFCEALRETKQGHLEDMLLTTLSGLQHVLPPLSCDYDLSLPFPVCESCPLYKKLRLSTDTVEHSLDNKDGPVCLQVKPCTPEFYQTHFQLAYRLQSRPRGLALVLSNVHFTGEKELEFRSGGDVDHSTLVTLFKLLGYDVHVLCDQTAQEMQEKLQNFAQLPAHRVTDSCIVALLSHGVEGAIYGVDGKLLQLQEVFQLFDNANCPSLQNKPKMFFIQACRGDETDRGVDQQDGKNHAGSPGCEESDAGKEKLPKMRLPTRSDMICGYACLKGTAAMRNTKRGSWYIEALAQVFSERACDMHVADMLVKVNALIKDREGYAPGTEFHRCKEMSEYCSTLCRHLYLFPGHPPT

| Compound | cell morphology (phase contrast) [1] | lactate dehydrogenase (LDH) release [1] | sub-G1 levels of DNA [1] | mitochondrial reductive potential (MTT) [1] | IC50 [2] [µM] |
| --- | --- | --- | --- | --- | --- |
| CCC(C)[C@H](NC(=O)[C@H](CCC(=O)O)NC(=O)[C@@H](NC(=O)OCc1ccccc1)C(C)C)C(=O)N[C@H](/C=C/S(C)(=O)=O)CC(=O)O (stereo partly shown) [NWL-117] | morphologically normal | did not release lactase dehydrogenase | nor did the cells show increased sub-G1 levels | comparable to vehicle-treated cells | > 100 |
| CCC(C)[C@H](NC(=O)[C@H](CCC(=O)O)NC(=O)[C@@H](NC(=O)OCc1ccccc1)C(C)C)C(=O)N[C@H](/C=C(\Cl)S(C)(=O)=O)CC(=O)O (stereo partly shown) [NWL-154] | morphologically normal | did not release lactase dehydrogenase | nor did the cells show increased sub-G1 levels | comparable to vehicle-treated cells | > 100 |
